# In patent US20210127673A1, “HERBICIDES” (SYNGENTA PARTICIPATIONS AG, priority 2016, published 2021):
# Assays:
# Format in all cases: in vivo
# [1] = system: Setaria faberi (SETFA); assay: Post-emergence herbicidal activity, Setaria faberi; design: key: 5=total damage to plant; 0=no damage to plant; settings: 1000 g/ha, evaluated after 13 days, Test 2b
# Summary of the method: (§1)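 Pot-grown plants sprayed 8 days after sowing with compound in acetone/water (50:50) containing 0.5% Tween 20, in a glasshouse at 24/16 °C day/night, 14 h light, 65% humidity. Damage scored 13 days after spraying on a 0–5 scale (5 = total damage, 0 = none).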
# [2] = system: Lolium perenne (LOLPE); assay: Post-emergence herbicidal activity, Lolium perenne; settings: 1000 g/ha, evaluated after 13 days, Test 2b
# Summary of the method: as §1
# [3] = system: Amaranthus retroflexus (AMARE); assay: Pre-emergence herbicidal activity, Amaranthus retroflexus; design: key: 5=total damage to plant; 0=no damage to plant; settings: 1000 g/ha, evaluated after 13 days, Test 1b
# Procedure: (§2) Seeds of a variety of test species were sown in standard soil in pots: Triticum aestivium (TRZAW), Avena fatua (AVEFA), Alopecurus myosuroides (ALOMY), Echinochloa crus-galli (ECHCG), Lolium perenne (LOLPE), Zea Mays (ZEAMX), Abutilon theophrasti (ABUTH), Amaranthus retroflexus (AMARE) and Setaria faberi (SETFA). After cultivation for one day (pre-emergence) under controlled conditions in a glasshouse (at 24/16° C., day/night; 14 hours light; 65% humidity), the plants were sprayed with an aqueous spray solution derived from the formulation of the technical active ingredient in acetone/water (50:50) solution containing 0.5% Tween 20 (polyoxyethelyene sorbitan monolaurate, CAS RN 9005-64-5). The test plants were then grown in a glasshouse under controlled conditions (at 24/16°, day/night; 14 hours light; 65% humidity) and watered twice daily. After 13 days, the test was evaluated (5=total damage to plant; 0=no damage to plant).
# [4] = system: Abutilon theophrasti (ABUTH); assay: Post-emergence herbicidal activity, Abutilon theophrasti; design: key: 5=total damage to plant; 0=no damage to plant; settings: 1000 g/ha, evaluated after 13 days, Test 2b
# Procedure: (§3) Seeds of a variety of test species were sown in standard soil in pots: Triticum aestivium (TRZAW), Avena fatua (AVEFA), Alopecurus myosuroides (ALOMY), Echinochloa crus-galli (ECHCG), Lolium perenne (LOLPE), Zea Mays (ZEAMX), Abutilon theophrasti (ABUTH), Amaranthus retroflexus (AMARE) and Setaria faberi (SETFA). After 8 days cultivation (post-emergence) under controlled conditions in a glasshouse (at 24/16° C., day/night; 14 hours light; 65% humidity), the plants were sprayed with an aqueous spray solution derived from the formulation of the technical active ingredient in acetone/water (50:50) solution containing 0.5% Tween 20 (polyoxyethelyene sorbitan monolaurate, CAS RN 9005-64-5). The test plants were then grown in a glasshouse under controlled conditions (at 24/16° C., day/night; 14 hours light; 65% humidity) and watered twice daily. After 13 days, the test was evaluated (5=total damage to plant; 0=no damage to plant).
# [5] = system: Zea Mays (ZEAMX); assay: Pre-emergence herbicidal activity, Zea Mays; design: key: 5=total damage to plant; 0=no damage to plant; settings: 1000 g/ha, evaluated after 13 days, Test 1b
# Procedure: as §2
# [6] = system: Abutilon theophrasti (ABUTH); assay: Pre-emergence herbicidal activity, Abutilon theophrasti; design: key: 5=total damage to plant; 0=no damage to plant; settings: 1000 g/ha, evaluated after 13 days, Test 1b
# Procedure: as §2
# [7] = system: Echinochloa crus-galli (ECHCG); assay: Post-emergence herbicidal activity, Echinochloa crus-galli; settings: 1000 g/ha, evaluated after 13 days, Test 2b
# Summary of the method: as §1
# [8] = system: Setaria faberi (SETFA); assay: Pre-emergence herbicidal activity, Setaria faberi; design: key: 5=total damage to plant; 0=no damage to plant; settings: 1000 g/ha, evaluated after 13 days, Test 1b
# Summary of the method: (§4)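 Damage is rated on a 0–5 scale (0 = no damage, 5 = total damage) 13 days after treatment. Pots of sown seed are sprayed one day after sowing with an aqueous solution from acetone/water (50:50) with 0.5% Tween 20, then kept under controlled glasshouse conditions.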
# [9] = system: Zea Mays (ZEAMX); assay: Post-emergence herbicidal activity, Zea Mays; design: key: 5=total damage to plant; 0=no damage to plant; settings: 1000 g/ha, evaluated after 13 days, Test 2b
# Procedure: as §3
# [10] = system: Lolium perenne (LOLPE); assay: Pre-emergence herbicidal activity, Lolium perenne; design: key: 5=total damage to plant; 0=no damage to plant; settings: 1000 g/ha, evaluated after 13 days, Test 1b
# Summary of the method: as §4
# [11] = system: Amaranthus retroflexus (AMARE); assay: Post-emergence herbicidal activity, Amaranthus retroflexus; design: key: 5=total damage to plant; 0=no damage to plant; settings: 1000 g/ha, evaluated after 13 days, Test 2b
# Procedure: as §3
# [12] = system: Echinochloa crus-galli (ECHCG); assay: Pre-emergence herbicidal activity, Echinochloa crus-galli; design: key: 5=total damage to plant; 0=no damage to plant; settings: 1000 g/ha, evaluated after 13 days, Test 1b
# Summary of the method: as §4
Structure (SMILES),SETFA damage score (0-5) [1],LOLPE damage score (0-5) [2],AMARE damage score (0-5) [3],ABUTH damage score (0-5) [4],ZEAMX damage score (0-5) [5],ABUTH damage score (0-5) [6],ECHCG damage score (0-5) [7],SETFA damage score (0-5) [8],ZEAMX damage score (0-5) [9],LOLPE damage score (0-5) [10],AMARE damage score (0-5) [11],ECHCG damage score (0-5) [12]
Cc1nc(-c2cncc(F)c2)ccc1NC(=O)OC(C)(C)C [Compound B19],5,4,1,1,5,1,4,4,5,3,2,4
Cc1nc(-c2cncc(C#N)c2)ccc1NC(=O)OC(C)(C)C [Compound B20],5,3,1,0,5,0,4,4,4,1,1,5
COc1cncc(-c2ccc(N(C)C(=O)OC(C)(C)C)c(C(F)(F)F)n2)c1 [Compound B21],3,1,1,0,0,1,2,1,2,0,0,0
CN(C(=O)OC(C)(C)C)c1ccc(-c2cccnc2)nc1C(F)(F)F [Compound B22],4,3,1,0,0,1,4,4,2,1,0,3
COc1cncc(-c2ccc(NC(=O)OC(C)(C)C)c(C)n2)c1 [Compound B23],3,2,1,1,1,1,2,4,5,1,1,1
Cc1nc(-c2cncc(C(F)(F)F)c2)ccc1NC(=O)OC(C)(C)C [Compound B24],2,1,1,1,1,1,2,1,2,0,2,0
Cc1nc(-c2cccnc2)ccc1NC(=O)OC(C)(C)C [Compound B25],5,4,1,2,3,1,3,5,4,2,2,2
CC(C)(C)OC(=O)Nc1ccc(-c2cncnc2)nc1Cl [Compound B27],5,2,0,2,2,0,4,4,3,1,2,4
Cc1nc(-c2cncnc2)ccc1NC(=O)OC(C)(C)C [Compound B28],4,4,0,0,3,0,4,2,5,1,0,2
"CN(C(=O)OC(C)(C)C)c1ccc(-c2cncc(F)c2)nc1C(F)(F)F [Compound B29, tert-butyl N-[6-(5-fluoro-3-pyridyl)-2-(trifluoromethyl)-3-pyridyl]-N-methyl-carbamate]",5,3,2,1,3,1,4,4,5,1,1,4
